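Method: 48-hour compound exposure of cells in 96-well plates, five concentrations, linear interpolation of endpoints. GI50: concentration for 50% inhibition of growth.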 Active and inactive are the calls of the source. Cut-off read from the data, not from the text of the source: active = GI50 up to about 1.1 µM and inactive = higher. Bounds are passed on as bounds.

Holding throughout (assay): inhibition of tumour cell growth, NCI panel, 48 h
In test [1] the test system is SNB-75.
Test [2] has as its system ACHN.
In test [3] the test system is NCI-H460.
Test [4] concerns SF-295.
Test [5] relates to OVCAR-8.
For test [6], the system named is OVCAR-5.
For test [7], the system named is PC-3.
Test [8] has as its system CAKI-1.
Test [9] deals with NCI-H226.
Test [10] concerns HCC 2998.
The subject of test [11] is MDA-MB-231.
The subject of test [12] is OVCAR-4.
In test [13] the test system is HCT-116.
Test [14] deals with EKVX.
Test [15] deals with UACC-62.
The subject of test [16] is Hs-578T.
Test [17] has as its system MDA-MB-435.

For the molecule `O=C(NCCOC(=O)OCCNC(=O)NC1CCCCC1)NC1CCCCC1`, the GI50 is 0.26 µM (active) in [1]; > 100 µM (inactive) in test [2]; > 100 µM (inactive) in test [3]; > 100 µM (inactive) in test [4]; > 100 µM (inactive) in test [5]; > 100 µM (inactive) in test [6]. The GI50 is > 100 µM (inactive) in [7]; > 100 µM (inactive) in test [8]; > 100 µM (inactive) in test [9]; > 100 µM (inactive) in test [10]; 15.8 µM (inactive) in test [11]; 91.6 µM (inactive) in [12]. For the same molecule, the GI50 in [13], in test [14], in test [15], in test [16] and in test [17] was > 100 µM (inactive) in each case.
`C/C(=N\OCC(O)CNCCSCc1ccccc1)c1ccccc1Cl` (stereo unspecified): the GI50 is 21.4 µM (inactive) in test [1]; 18.1 µM (inactive) in [2]; 21.6 µM (inactive) in [3]; 18.6 µM (inactive) in test [4]; 14.6 µM (inactive) in test [5]; 19.3 µM (inactive) in test [6]. The GI50 in [7] is 18.5 µM (inactive); in [8], 17.7 µM (inactive); in test [9], 17.6 µM (inactive); in test [10] it was 19.4 µM (inactive); in test [11], 18 µM (inactive); in test [13], 21.6 µM (inactive). The GI50 in [14] is 20 µM (inactive); in test [15] it was 18.6 µM (inactive); in test [16], 27.7 µM (inactive); in [17], 17.4 µM (inactive).
Take `CN1C(=O)CC(=O)N1/C(=C/c1ccccc1)c1ccccc1`: the GI50 in test [1] was > 100 µM (inactive); in [2], 54.1 µM (inactive); in test [3], 48 µM (inactive); in test [4], 67 µM (inactive); in test [5] it was > 100 µM (inactive); in test [6], > 100 µM (inactive). Moreover, the GI50 in [7] is 32 µM (inactive); in test [8], 23.7 µM (inactive); in test [9], > 100 µM (inactive); in [10], > 100 µM (inactive); in test [11], 12.6 µM (inactive); in test [12], 49.8 µM (inactive). Also, the GI50 in test [13] was > 100 µM (inactive); in test [14] it was > 100 µM (inactive); in test [15], 76.9 µM (inactive); in test [16] it was 28.2 µM (inactive); in test [17], 66.8 µM (inactive).
`Cc1cc(=O)n2nc(CCl)sc2n1`: the GI50 in [1] is 10.8 µM (inactive); in test [2] it was 14.3 µM (inactive); in test [3], 11.4 µM (inactive); in [4], 19.3 µM (inactive); in test [5], 16.7 µM (inactive); in test [6] it was 15 µM (inactive). For the same molecule, the GI50 is 13.3 µM (inactive) in test [7]; 10.3 µM (inactive) in test [8]; 13.9 µM (inactive) in test [9]; 16 µM (inactive) in test [10]; 20.7 µM (inactive) in test [11]; 17.8 µM (inactive) in [12]. The GI50 in test [13] was 12.4 µM (inactive); in test [14] it was 17.4 µM (inactive); in test [15], 14.4 µM (inactive); in test [16], 17 µM (inactive); in test [17], 12.7 µM (inactive).
`COc1ccc2c(c1)c1c(n2CCN(C)C)-c2ccccc2CC1`: the GI50 in test [1] was 13.7 µM (inactive); in [2], 16.4 µM (inactive); in test [3], 16.7 µM (inactive); in test [4], 16.9 µM (inactive); in test [5], 16.9 µM (inactive); in test [6], 18.2 µM (inactive). Also, the GI50 in test [7] is 12.6 µM (inactive); in test [8] it was 14.3 µM (inactive); in test [9], 12.2 µM (inactive); in [10], 18.2 µM (inactive); in test [11], 13.6 µM (inactive); in test [12] it was 16.9 µM (inactive). The GI50 in test [13] was 15.2 µM (inactive); in test [14], 9.77 µM (inactive); in test [15] it was 14.5 µM (inactive); in test [16] it was 17.6 µM (inactive); in [17], 16.5 µM (inactive).
Consider `CN(C1=NCCO1)c1cccc2ccccc12`, for which the GI50 is 9.29 µM (inactive) in test [1]; > 10 µM (inactive) in test [2]; > 10 µM (inactive) in [3]; > 10 µM (inactive) in test [4]; > 10 µM (inactive) in [5]; > 10 µM (inactive) in test [6]. For the same molecule, the GI50 in [7], in [8], in test [9], in test [10], in test [11] and in test [12] was > 10 µM (inactive) throughout. Besides, the GI50 in [13], in test [14], in [15], in [16] and in test [17] was > 10 µM (inactive) in each case.
Turning to `O=C1C=C/C(=C/[C@H]2SSC=C[C@]23C=CC(=O)C3)C1`, the GI50 in test [1] was 33.7 µM (inactive); in test [2], 18.1 µM (inactive); in [3], 29.3 µM (inactive); in test [4], 30.7 µM (inactive); in test [5], 25.9 µM (inactive); in test [6] it was 13 µM (inactive). Besides, the GI50 in test [7] is 24.7 µM (inactive); in [8], 9.91 µM (inactive); in test [9], 6.41 µM (inactive); in test [10], 20.6 µM (inactive); in test [11] it was 28.1 µM (inactive); in test [12], 30 µM (inactive). Further, the GI50 in test [13] is 7.36 µM (inactive); in test [14], 17.5 µM (inactive); in test [15], 18 µM (inactive); in [16], 10.8 µM (inactive); in test [17], 17.7 µM (inactive).
`O=C(O)C(F)(F)C(F)(F)C(F)(F)C(F)(F)C(F)(F)C(F)(F)C(F)(F)C(F)(F)F`: the GI50 in [1] was 71.8 µM (inactive); in test [2], 65.3 µM (inactive); in [3], 81.5 µM (inactive); in [4] it was 31 µM (inactive); in test [5], 43.9 µM (inactive); in test [6], 33.3 µM (inactive). The GI50 in test [7] is 42.1 µM (inactive); in test [8], > 100 µM (inactive); in [9] it was 34.2 µM (inactive); in test [10] it was 86.9 µM (inactive); in test [11], 46.2 µM (inactive); in test [12] it was 73.3 µM (inactive). Also, the GI50 in test [13] was 41 µM (inactive); in [14], 48 µM (inactive); in [15] it was > 100 µM (inactive); in [16], 29.9 µM (inactive); in [17] it was 48.3 µM (inactive).
As for `CSc1ncc2c(n1)-c1ccccc1OC2NC(C)(C)C` (stereo unspecified), the GI50 in test [1] is 27.2 µM (inactive); in test [2], 92.9 µM (inactive); in test [3] it was > 100 µM (inactive); in test [4], 47.3 µM (inactive); in [5], > 100 µM (inactive); in [6] it was 50.7 µM (inactive). For the same molecule, the GI50 in [7] was > 100 µM (inactive); in test [8], 35.7 µM (inactive); in test [9], 31.4 µM (inactive); in test [10], 21.3 µM (inactive); in test [11] it was > 100 µM (inactive); in [12], > 100 µM (inactive). In addition, the GI50 in test [13] is > 100 µM (inactive); in test [14] it was 29 µM (inactive); in test [15], 68.1 µM (inactive); in test [16] it was 83.4 µM (inactive); in [17], > 100 µM (inactive).
`COc1cccc(N2C(=O)CSC2c2cccc(Oc3ccccc3)c2)c1` (stereo unspecified): the GI50 in test [1] was 3.9 µM (inactive); in [2] it was 6.17 µM (inactive); in [3] it was 3.33 µM (inactive); in test [4] it was 6.32 µM (inactive); in test [5] it was 8.69 µM (inactive); in test [6] it was 18.5 µM (inactive). In addition, the GI50 in [7] was 5.3 µM (inactive); in [8], 2.03 µM (inactive); in [9] it was 8.32 µM (inactive); in test [10], 3.14 µM (inactive); in test [11], 7.78 µM (inactive); in test [12], 10.3 µM (inactive). The GI50 is 3.61 µM (inactive) in [13]; 13.8 µM (inactive) in [14]; 3.21 µM (inactive) in test [15]; 5.78 µM (inactive) in test [16]; 2.81 µM (inactive) in test [17].
For the molecule `O=C(O)C(O)Cc1ccccn1` (stereo unspecified), the GI50 in test [2], in test [3], in test [4], in test [5], in [6] and in test [7] was > 100 µM (inactive) in each case. The GI50 in test [8], in test [9], in test [10], in [11], in test [12] and in test [14] was > 100 µM (inactive) in each case. Moreover, the GI50 in test [15], in [16] and in test [17] was > 100 µM (inactive) each time.
As for `Cc1ccc(S(=O)(=O)NC(=O)OC23COCN2COC3)cc1`, the GI50 in [1], in test [2], in test [3], in test [4], in [5] and in test [6] was > 100 µM (inactive) each time. Further, the GI50 in test [7], in test [8], in test [9], in test [10], in [11] and in test [12] was > 100 µM (inactive) each time. Moreover, the GI50 in test [13], in test [14], in test [15], in test [16] and in test [17] was > 100 µM (inactive) each time.

The values are drawn from ChEMBL document CHEMBL1201862, “PubChem BioAssay data set” (2004).
